{"source": "patent US6841701B2", "about": "“Inhibitors for the blood-clotting factor Xa” (Curacyte AG, priority 2000, dated 2005)", "key": {"F Xa": {"biological_target": "F Xa (Homo sapiens, UniProt P00742)", "sequence (P00742 235-488 limits assumed)": "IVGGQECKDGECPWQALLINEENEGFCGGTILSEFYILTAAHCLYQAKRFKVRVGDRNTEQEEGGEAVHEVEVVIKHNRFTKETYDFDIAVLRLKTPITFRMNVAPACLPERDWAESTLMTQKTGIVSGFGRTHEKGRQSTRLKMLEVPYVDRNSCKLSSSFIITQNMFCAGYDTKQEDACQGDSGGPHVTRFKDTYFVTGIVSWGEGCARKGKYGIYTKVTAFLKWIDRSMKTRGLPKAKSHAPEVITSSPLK", "sequence (P00742 41-179 partner limits assumed)": "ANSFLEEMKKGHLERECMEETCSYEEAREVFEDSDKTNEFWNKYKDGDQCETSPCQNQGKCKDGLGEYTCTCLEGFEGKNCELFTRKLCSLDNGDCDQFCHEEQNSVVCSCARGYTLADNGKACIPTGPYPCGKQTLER", "conditions": "cited from earlier work"}, "human citrate plasma [1]": {"system": "human citrate plasma", "experiment": "Inhibition of the coagulation of human plasma: activated partial thromboplastin time (aPTT)", "type": "biochemical", "method": "(§1) Determination of the Inhibition of Coagulation\n(§2) For the determination of the prothrombin time (PT), 100 μl of thromboplastin (Dade, Unterschleiβheim) and 100 μl of inhibitor, dissolved in CaCl2 (0.05 M, 5% ethanol) were incubated at 37° C. for 2 min and the coagulation was started by addition of 100 μl of human citrate plasma. For the determination of the activated partial thromboplastin time (aPTT), 100 μl of human citrate plasma were incubated with 100 μl of aPTT reagent (Roche Diagnostics, Mannheim) at 37° C. for 3 min and the coagulation was started by addition of 100 μl of inhibitor, dissolved in CaCl2 (0.05 M, 5% ethanol). The coagulation times were determined using the Thrombotrack coagulometer (Immuno, Heidelberg)."}, "human citrate plasma [2]": {"system": "human citrate plasma", "experiment": "Inhibition of the coagulation of human plasma: prothrombin time (PT)", "type": "biochemical", "method": "as §1, §2"}}, "note": "Structures can show the parent of a compound that is named as a salt. Where two headings read alike, the source gives them in different places."}
{"smiles": "N=C(N)c1ccc(C=C2CCCCC(=Cc3ccc(C(=N)N)cc3)C2=O)cc1", "note": "[BABCH]", "values": [{"measurement": "Ki", "setting": "F Xa; literature", "value": 13, "unit": "nM"}]}
{"smiles": "N=C(N)c1ccc(CNC(=O)CNC(=O)[C@@H](COCc2ccccc2)NS(=O)(=O)Cc2ccccc2)cc1", "note": "[Benzylsulfonyl-D-Ser(Bz)-Gly-4-amidinobenzylamide×TFA]", "values": [{"measurement": "Prolongation of the coagulation time (%) aPTT", "setting": "human citrate plasma [1]; Concentration 0.1 μM", "value": 111, "unit": "%"}, {"measurement": "Prolongation of the coagulation time (%) aPTT", "setting": "human citrate plasma [1]; Concentration 0.21 μM", "value": 122, "unit": "%"}, {"measurement": "Prolongation of the coagulation time (%) aPTT", "setting": "human citrate plasma [1]; Concentration 0.42 μM", "value": 146, "unit": "%"}, {"measurement": "Prolongation of the coagulation time (%) aPTT", "setting": "human citrate plasma [1]; Concentration 0.83 μM", "value": 185, "unit": "%"}, {"measurement": "Prolongation of the coagulation time (%) aPTT", "setting": "human citrate plasma [1]; Concentration 1.7 μM", "value": 260, "unit": "%"}, {"measurement": "Prolongation of the coagulation time (%) aPTT", "setting": "human citrate plasma [1]; Concentration 3.3 μM", "value": 385, "unit": "%"}, {"measurement": "Prolongation of the coagulation time (%) PT", "setting": "human citrate plasma [2]; Concentration 0.1 μM", "value": 119, "unit": "%"}, {"measurement": "Prolongation of the coagulation time (%) PT", "setting": "human citrate plasma [2]; Concentration 0.21 μM", "value": 127, "unit": "%"}, {"measurement": "Prolongation of the coagulation time (%) PT", "setting": "human citrate plasma [2]; Concentration 0.42 μM", "value": 153, "unit": "%"}, {"measurement": "Prolongation of the coagulation time (%) PT", "setting": "human citrate plasma [2]; Concentration 0.83 μM", "value": 198, "unit": "%"}, {"measurement": "Prolongation of the coagulation time (%) PT", "setting": "human citrate plasma [2]; Concentration 1.7 μM", "value": 266, "unit": "%"}, {"measurement": "Prolongation of the coagulation time (%) PT", "setting": "human citrate plasma [2]; Concentration 3.3 μM", "value": 386, "unit": "%"}]}
{"smiles": "N=C(N)c1ccc(CNC(=O)[C@@H]2CCN2C(=O)[C@H](NCC(=O)O)C2CCCCC2)cc1", "note": "[melagatran]", "values": [{"measurement": "Ki", "setting": "F Xa; literature (Gustafsson et al. 1996)", "value": 2800, "unit": "nM"}]}
